This note sets out measurements from patent US20110178104A1, “Anti-Heparin Compounds” (POLYMEDIX INC., priority 2010, published 2011).

Starred links: 1 amine or outer side, 2 acyl side, 3 side chain; linkers in the order of their positions; H or OH if unused. Non-standard residues stand in square brackets, D forms with d. Residues, ends and D or L forms follow the SMILES beside them. *: point of attachment. NH(3-CONH2-4-OMe-phenyl) = COc1ccc(N*)cc1C(N)=O; 3Abz(6-OMe) = COc1ccc(N[*:1])cc1C(=O)[*:2]

Assay [1] deals with enoxaparin (ENOX). Briefly: FXa chromogenic assay (absence of plasma), enoxaparin. Conditions: enoxaparin 0.1 μg/mL, absence of plasma.
The test system of assay [2] is unfractionated heparin (UFH). Put plainly: aPTT clotting assay, UFH 0.2 U/mL in plasma (Example 7). The class given is biochemical. The following applies: UFH 0.2 U/mL in plasma. The procedure: aPTT clotting Assay. Unfractionated heparin was mixed with plasma at a final concentration of 0.2 U/mL. […] The ACL Elite Hemostasis analyzer (Beckman Coulter™) was used to add aPTT reagent (HemosIL SynthASil) to supplemented plasma. Clotting was initiated by addition of CaCl2 and time to clot was recorded.

Assay [3] deals with fondaparinux (FONDAPX). Put plainly: FXa chromogenic assay (absence of plasma), fondaparinux. Conditions: fondaparinux 0.02 μg/mL, absence of plasma.
Description: Human antithrombin was mixed with an anticoagulant agent (a LMWH or fondaparinux); final concentrations were 0.22 μg/mL for the LMWHs and 0.07 μg/mL for fondaparinux. […] Absorbance was read every 30 seconds over a 4 minute period in a SpectraMax 250 instrument (Molecular Devices, Inc.). EC50 values are determined by a curve-fit program (SoftMax Pro) using the following formula:
FXa Chromogenic Assay (absence of plasma). Human antithrombin was mixed with an anticoagulant (a LMWH or fondaparinux); final concentrations were 0.1 μg/mL for the LMWHs and 0.02 μg/mL for fondaparinux. […] Absorbance was read every 30 seconds over a 4 minute period in a SpectraMax 250 instrument (Molecular Devices Inc.™) The slope of absorbance vs time was calculated for each compound concentration. EC50 values were determined using a curve fit program (GraphPad Prism 5).

Take `COc1ccc(NC(=O)[C@H](CCCNC(N)=O)NC(=O)c2cc(NC(=O)[C@H](CCCCN)NC(=O)c3cc(NC(=O)[C@H](CCCCN)NC(=O)c4cc(NC(=O)[C@@H](N)CCCCN)ccc4OC)ccc3OC)ccc2OC)cc1C(N)=O` [Compound 140]: in assay [1], the “ENOX (FXa) EC50” value worked out at 0.4309 µg/mL. For the same molecule, the “UFH (aPTT) EC50” value in assay [2] came to 2.52 µg/mL. For the same molecule, the “FONDAPX (FXa) EC50” value in assay [3] turned out to be 4.636 µg/mL.
`COc1ccc(NC(=O)[C@H](CCCCN)NC(=O)c2cc(NC(=O)[C@H](CCCCN)NC(=O)c3cc(NC(=O)[C@H](CCCNC(=N)N)NC(=O)c4cc(NC(=O)[C@@H](N)CCCCN)ccc4OC)ccc3OC)ccc2OC)cc1C(N)=O` [Compound 80]: in assay [1], the “ENOX (FXa) EC50” value was 0.35 µg/mL. Besides, the “UFH (aPTT) EC50” value in assay [2] was “inactive”. The “FONDAPX (FXa) EC50” value in assay [3] came out at 4.34 µg/mL.
With `COc1ccc(NC(=O)[C@H](CCCCN)NC(=O)c2cc(NC(=O)[C@H](CCCCN)NC(=O)c3cc(NC(=O)[C@H](CCCCN)NC(=O)c4cc(NC(=O)[C@@H](N)CCCCN)ccc4OC)ccc3SC)ccc2OC)cc1C(N)=O` [Compound 132], the “ENOX (FXa) EC50” value in assay [1] is >20 µg/mL. Besides, the “UFH (aPTT) EC50” value in assay [2] is >10 µg/mL. Further, in assay [3], the “FONDAPX (FXa) EC50” value is “inactive”.
With `COc1ccc(NC(=O)[C@H](CCCCN)NC(=O)c2cc(NC(=O)[C@@H](N)CCCCN)ccc2OC)cc1C(=O)N[C@@H](CCCCN)C(=O)Nc1ccc(OC)c(C(=O)N[C@@H](CCCCN)C(=O)Nc2ccc(OC)c(C(=O)N[C@H](Cc3ccccc3)C(=O)O)c2)c1` [Compound 111], the “ENOX (FXa) EC50” value in assay [1] was determined as 1.348 µg/mL. Also, the “UFH (aPTT) EC50” value in assay [2] was 2.54 µg/mL. Besides, the “FONDAPX (FXa) EC50” value in assay [3] was >20 µg/mL.
As for `COc1ccc(NC(=O)[C@@H](CCCNC(=N)N)NC(=O)c2cc(NC(=O)[C@H](C)NC(=O)[C@@H](CCCNC(=N)N)NC(=O)c3cc(NC(=O)[C@@H](CCCNC(=N)N)NC(=O)c4cc(NC(=O)[C@H](N)CCCNC(=N)N)ccc4OC)ccc3OC)ccc2OC)cc1C(N)=O` [Compound 75] (H-[dR][3Abz(6-OMe)][dR][3Abz(6-OMe)][dR]A[3Abz(6-OMe)][dR]-{NH(3-CONH2-4-OMe-phenyl)}), the “ENOX (FXa) EC50” value in assay [1] is 3.71 µg/mL. Besides, the “UFH (aPTT) EC50” value in assay [2] amounted to 4.80 µg/mL. The “FONDAPX (FXa) EC50” value in assay [3] is 44.99 µg/mL.
For the molecule `COc1ccc(NC(=O)[C@H](CCCCN)NC(=O)c2cc(NC(=O)[C@H](CCCCN)NC(=O)c3cc(NC(=O)[C@H](CCCCN)NC(=O)c4cc(N)cc(C(F)(F)F)c4)ccc3OC)ccc2OC)cc1C(N)=O` [Compound 125], the “ENOX (FXa) EC50” value in assay [1] is 0.9448 µg/mL. For the same molecule, the “UFH (aPTT) EC50” value in assay [2] is >10 µg/mL. In assay [3], the “FONDAPX (FXa) EC50” value amounted to 3.114 µg/mL.
The corresponding values for `COc1ccc(NC(=O)[C@H](CCCCN)NC(=O)c2cc(NC(=O)[C@H](CCCCN)NC(=O)c3cc(NC(=O)[C@H](CCCCN)NC(=O)c4cc(NC(=O)[C@@H](N)CCCCN)ccc4OC)ccc3OC)ccc2OC)cc1C(=O)Nc1cccc(C(=O)O)c1` [Compound 144] are 0.244 µg/mL, 3.13 µg/mL and 1.051 µg/mL.
Regarding `COc1ccc(NC(=O)[C@H](CCCCN)NC(=O)c2cc(NC(=O)[C@H](CCCCN)NC(=O)c3cc(NC(=O)[C@H](CCCCN)NC(=O)c4cc(NC(=O)[C@@H](N)CCCCN)ccc4OC)ccc3OC)ccc2OC)cc1C(=O)N[C@@H](Cc1ccc(O)cc1)C(=O)O` [Compound 112], the “ENOX (FXa) EC50” value in assay [1] turned out to be 0.257 µg/mL. Further, the “UFH (aPTT) EC50” value in assay [2] came out at 2.71 µg/mL. Besides, the “FONDAPX (FXa) EC50” value in assay [3] was 0.717 µg/mL.
With `COc1ccc(NC(=O)[C@H](CCCCN)NC(=O)c2cc(NC(=O)[C@H](CCCCN)NC(=O)c3cc(NC(=O)[C@H](CCCCN)NC(=O)c4cc(NC(=O)[C@@H](N)CCCCN)ccc4OC)ccc3OC)ccc2OC)cc1C(=O)NCC(=O)O` [Compound 107], the “ENOX (FXa) EC50” value in assay [1] was 0.498 µg/mL. For the same molecule, the “UFH (aPTT) EC50” value in assay [2] was 1.34 µg/mL. Also, in assay [3], the “FONDAPX (FXa) EC50” value was 6.961 µg/mL.
Take `COc1ccc(NC(=O)[C@@H](CCCN)NC(=O)c2cc(NC(=O)[C@@H](CCCNC(=N)N)NC(=O)c3cc(NC(=O)[C@@H](CCCNC(=N)N)NC(=O)c4cc(NC(=O)CCCCN)ccc4OC)ccc3OC)ccc2OC)cc1C(N)=O` [Compound 48]: the “ENOX (FXa) EC50” value in assay [1] stood at 0.30 µg/mL. The “UFH (aPTT) EC50” value in assay [2] stood at 1.72 µg/mL. Moreover, the “FONDAPX (FXa) EC50” value in assay [3] worked out at 3.35 µg/mL.
On to `COc1ccc(NC(=O)[C@H](CCCCN)NC(=O)c2cc(NC(=O)[C@H](CCCCN)NC(=O)c3cc(NC(=O)[C@H](C)NC(=O)c4cc(NC(=O)[C@@H](N)CCCCN)ccc4OC)ccc3OC)ccc2OC)cc1C(N)=O` [Compound 77], for which the “ENOX (FXa) EC50” value in assay [1] was found to be 0.61 µg/mL. Further, the “UFH (aPTT) EC50” value in assay [2] stood at 4.55 µg/mL. Further, in assay [3], the “FONDAPX (FXa) EC50” value stood at 2.47 µg/mL.
With `COc1cc(OC)c(C(=O)N[C@H]2CC[C@H](NC(=O)c3cc(C(=O)NCCN(C)C)c(OCCCCCN)cc3OCCCCCN)CC2)cc1C(=O)NCCN(C)C` [Compound 86], the “UFH (aPTT) EC50” value in assay [2] is “inactive”. The “FONDAPX (FXa) EC50” value in assay [3] is >90 µg/mL.
Take `COc1ccc(NC(=O)[C@H](CCCCN)NC(=O)c2cc(NC(=O)[C@H](CCCCN)NC(=O)c3cc(NC(=O)[C@H](CCCCN)NC(=O)c4cc(NC(=O)[C@@H](N)CCCCN)ccc4SC)ccc3OC)ccc2OC)cc1C(N)=O` [Compound 130]: in assay [1], the “ENOX (FXa) EC50” value came out at 0.3835 µg/mL. The “UFH (aPTT) EC50” value in assay [2] stood at 2.50 µg/mL. Also, the “FONDAPX (FXa) EC50” value in assay [3] stood at 5.47 µg/mL.
With `COc1ccc(NC(=O)[C@H](C)NC(=O)c2cc(NC(=O)[C@H](CCCCN)NC(=O)c3cc(NC(=O)[C@H](CCCCN)NC(=O)c4cc(NC(=O)[C@@H](N)CCCCN)ccc4OC)ccc3OC)ccc2OC)cc1C(N)=O` [Compound 94], the “ENOX (FXa) EC50” value in assay [1] is 1.32 µg/mL. Besides, the “UFH (aPTT) EC50” value in assay [2] amounted to 4.94 µg/mL. Also, in assay [3], the “FONDAPX (FXa) EC50” value was >20 µg/mL.
Regarding `COc1cc(C(=O)Nc2cc(C(F)(F)F)cc(NC(=O)CCCCNC(=N)N)c2SCCN)c(OC)cc1C(=O)Nc1cc(C(F)(F)F)cc(NC(=O)CCCCNC(=N)N)c1SCCN` [Compound 88], the “ENOX (FXa) EC50” value in assay [1] came to 0.24 µg/mL. Besides, in assay [2], the “UFH (aPTT) EC50” value is 4.30 µg/mL. The “FONDAPX (FXa) EC50” value in assay [3] is 1.38 µg/mL.
`COc1ccc(NC(=O)[C@H](CCCCN)NC(=O)c2cc(NC(=O)[C@@H](N)CCCCN)ccc2OC)cc1C(=O)N[C@@H](CCCCN)C(=O)Nc1ccc(OC)c(C(=O)N[C@@H](CCCCN)C(=O)Nc2ccc(OC)c(C(=O)N[C@H](C)C(=O)O)c2)c1` [Compound 146]: in assay [1], the “ENOX (FXa) EC50” value was 1.027 µg/mL. Further, the “UFH (aPTT) EC50” value in assay [2] was 2.74 µg/mL. In assay [3], the “FONDAPX (FXa) EC50” value came to 19.030 µg/mL.
Taken in the same sequence, the figures for `COc1ccc(NC(=O)[C@@H](CCCNC(=N)N)NC(=O)c2cc(NC(=O)[C@@H](CCCNC(=N)N)NC(=O)c3cc(NC(=O)[C@H](C)NC(=O)[C@@H](CCCNC(=N)N)NC(=O)c4cc(NC(=O)[C@H](N)CCCNC(=N)N)ccc4OC)ccc3OC)ccc2OC)cc1C(N)=O` [Compound 73] (H-[dR][3Abz(6-OMe)][dR]A[3Abz(6-OMe)][dR][3Abz(6-OMe)][dR]-{NH(3-CONH2-4-OMe-phenyl)}) were 2.49 µg/mL, 5.16 µg/mL and 17.92 µg/mL.
Take `COc1cc(OC)c(C(=O)N[C@H]2CC[C@H](NC(=O)c3cc(C(=O)NCCN(C)C)c(OCCNC(=N)N)cc3OCCNC(=N)N)CC2)cc1C(=O)N[C@H]1CC[C@H](NC(=O)c2cc(C(=O)NCCN(C)C)c(OCCNC(=N)N)cc2OCCNC(=N)N)CC1` [Compound 106]: the “ENOX (FXa) EC50” value in assay [1] was found to be 1.66 µg/mL. Moreover, in assay [2], the “UFH (aPTT) EC50” value is recorded as “Inactive”. Moreover, the “FONDAPX (FXa) EC50” value in assay [3] was >20 µg/mL.
Taken in the same sequence, the figures for `COc1ccc(NC(=O)[C@H](N)CCCNC(=N)N)cc1C(=O)N[C@H](CCCNC(=N)N)C(=O)Nc1ccc(OC)c(C(=O)N[C@H](CCCNC(=N)N)C(=O)Nc2ccc(OC)c(C(=O)N[C@H](CCCNC(=N)N)C(=O)Nc3cccc(C(N)=O)c3)c2)c1` [Compound 67] were 0.33 µg/mL, 1.75 µg/mL and 5.19 µg/mL.
`COc1ccc(NC(=O)[C@H](CCCCN)NC(=O)c2cc(NC(=O)[C@H](CCCCN)NC(=O)c3cc(NC(=O)[C@H](CCCCN)NC(=O)c4cc(NC(=O)[C@H](CCCCN)NC(C)=O)ccc4OC)ccc3OC)ccc2OC)cc1C(N)=O` [Compound 28]: the “ENOX (FXa) EC50” value in assay [1] was determined as 0.23 µg/mL. The “UFH (aPTT) EC50” value in assay [2] was found to be 2.28 µg/mL. In addition, in assay [3], the “FONDAPX (FXa) EC50” value was 3.21 µg/mL.
The corresponding values for `COc1ccc(NC(=O)[C@H](CCCCN)NC(=O)c2cc(NC(=O)[C@H](CCCCN)NC(=O)c3cc(NC(=O)[C@H](CCCCN)NC(=O)c4ccc(NC(=O)[C@@H](N)CCCCN)cc4OC)ccc3OC)ccc2OC)cc1C(N)=O` [Compound 129] are 0.3888 µg/mL, 2.47 µg/mL and 7.996 µg/mL.
Take `N=C(N)NCCC[C@@H](N)C(=O)Nc1cccc(C(=O)N[C@H](CCCNC(=N)N)C(=O)Nc2cccc(C(=O)N[C@H](CCCNC(=N)N)C(=O)Nc3cccc(C(=O)N[C@H](CCCNC(=N)N)C(=O)Nc4cccc(C(N)=O)n4)n3)n2)n1` [Compound 65]: the “ENOX (FXa) EC50” value in assay [1] is 16.29 µg/mL. The “UFH (aPTT) EC50” value in assay [2] came to 4.48 µg/mL.
`COc1ccc(NC(=O)[C@@H](CCCNC(=N)N)NC(=O)c2cc(NC(=O)[C@@H](CCCNC(=N)N)NC(=O)c3cc(NC(=O)[C@@H](CCCNC(=N)N)NC(=O)c4cc(NC(=O)[C@@H](CCCNC(=N)N)NC(=O)CCCCCCCCC(=O)N[C@H](CCCNC(=N)N)C(=O)Nc5ccc(OC)c(C(=O)N[C@H](CCCNC(=N)N)C(=O)Nc6ccc(OC)c(C(=O)N[C@H](CCCNC(=N)N)C(=O)Nc7ccc(OC)c(C(=O)N[C@H](CCCNC(=N)N)C(=O)Nc8ccc(OC)c(C(N)=O)c8)c7)c6)c5)ccc4OC)ccc3OC)ccc2OC)cc1C(N)=O` [Compound 66]: in assay [2], the “UFH (aPTT) EC50” value came to 2.53 µg/mL.
